Holding throughout (format): in vivo
Experiment [1] deals with green peach aphid (Myzus persicae). The experiment can be described thus: Green peach aphid (Myzus persicae) systemic test, artificial diet under membrane. The note with it: 72 h, 3 days, read-out: mortality in comparison with untreated controls (aphid mortality). The method, then:
(§1) If not otherwise specified, the test solutions are prepared as follows: The active compound is dissolved at the desired concentration in a mixture of 1:1 (vol:vol) distilled water:acetone. The test solution is prepared at the day of use. Test solutions are prepared in general at concentrations of 2500 ppm, 1000 ppm, 800 ppm, 500 ppm, 300 ppm, 100 ppm and 30 ppm (wt/vol).
Green Peach Aphid (Myzus persicae) For evaluating control of green peach aphid (Myzus persicae) through systemic means the test unit consisted of 96-well-microtiter plates containing liquid artificial diet under an artificial membrane. The compounds were formulated using a solution containing 75% v/v water and 25% v/v DMSO. Different concentrations of formulated compounds were pipetted into the aphid diet, using a custom built pipetter, at two replications. After application, 5-8 adult aphids were placed on the artificial membrane inside the microtiter plate wells. The aphids were then allowed to suck on the treated aphid diet and incubated at about 23±1° C. and about 50±5% relative humidity for 3 days. Aphid mortality and fecundity was then visually assessed.

The subject of experiment [2] is boll weevil (Anthonomus grandis). In words: Boll weevil (Anthonomus grandis) egg and larval mortality, insect diet in 96-well microtiter plates. As to conditions: 120 h, 5 days, read-out: mortality in comparison with untreated controls (egg and larval mortality). The method, then: as §1
Boll Weevil (Anthonomus grandis)
For evaluating control of boll weevil (Anthonomus grandis) the test unit consisted of 96-well-microtiter plates containing an insect diet and 5-10 A. grandis eggs. The compounds were formula ted using a solution containing 75% v/v water and 25% v/v DMSO. Different concentrations of formulated compounds were sprayed onto the insect diet at 5 μl, using a custom built micro atomizer, at two replications. After application, microtiter plates were incubated at about 25±1° C. and about 75±5% relative humidity for 5 days. Egg and larval mortality was then visually assessed.

The subject of experiment [3] is yellow fever mosquito (Aedes aegypti). The experiment can be described thus: whole plant or invertebrate. The note with it: 48 h, 2 days, read-out: mortality in comparison with untreated controls (larval mortality). Here is the method:
as §1
Yellow Fever Mosquito (Aedes aegypti)
For evaluating control of yellow fever mosquito (Aedes aegypti) the test unit consisted of 96-well-microtiter plates containing 200 μl of tap water per well and 5-15 freshly hatched A. aegypti larvae. The active compounds were formulated using a solution containing 75% (v/v) water and 25% (v/v) DMSO. Different concentrations of formulated compounds or mixtures were sprayed onto the insect diet at 2.5 μl, using a custom built micro atomizer, at two replications. After application, microtiter plates were incubated at 28±1° C., 80±5% RH for 2 days. Larval mortality was then visually assessed.

Experiment [4] relates to vetch aphid (Megoura viciae). The experiment can be described thus: Vetch aphid (Megoura viciae) contact or systemic test on broad bean leaf disks. As to conditions: foliar, 120 h, 5 days, read-out: mortality in comparison with untreated controls (aphid mortality). Here is the method:
as §1
Vetch Aphid (Megoura viciae)
For evaluating control of vetch aphid (Megoura viciae) through contact or systemic means the test unit consisted of 24-well-microtiter plates containing broad bean leaf disks.
The compounds were formulated using a solution containing 75% v/v water and 25% v/v DMSO. Different concentrations of formulated compounds were sprayed onto the leaf disks at 2.5 μl, using a custom built micro atomizer, at two replications. After application, the leaf disks were air-dried and 5-8 adult aphids placed on the leaf disks inside the microtiter plate wells. The aphids were then allowed to suck on the treated leaf disks and incubated at about 23±1° C. and about 50±5% relative humidity for 5 days. Aphid mortality and fecundity was then visually assessed.

The test system of experiment [5] is tobacco budworm (Heliothis virescens). The experiment can be described thus: Tobacco budworm (Heliothis virescens) egg and larval mortality, insect diet in 96-well microtiter plates. As to conditions: 120 h, 5 days, read-out: mortality in comparison with untreated controls (egg and larval mortality). The method, then:
as §1
Tobacco Budworm (Heliothis virescens)
For evaluating control of tobacco budworm (Heliothis virescens) the test unit consisted of 96-well-microtiter plates containing an insect diet and 15-25 H. virescens eggs. The compounds were formulated using a solution containing 75% v/v water and 25% v/v DMSO. Different concentrations of formulated compounds were sprayed onto the insect diet at 10 μl, using a custom built micro atomizer, at two replications. After application, microtiter plates were incubated at about 28±1° C. and about 80±5% relative humidity for 5 days. Egg and larval mortality was then visually assessed.

Take `CCS(=O)(=O)c1c(-c2nc3cnc4c(OC(F)(F)F)cccc4c3n2C)nc2ncccn12` [C-17]: the mortality at 800 ppm in experiment [1] was over 75%.
For `CCS(=O)(=O)c1c(-c2nc3cnc4c(C(F)(F)F)cccc4c3n2C)nc2ccc(C(F)(F)F)cn12` [C-2], the mortality at 2500 ppm in experiment [2], in experiment [1], in experiment [4] and in experiment [5] was over 75% throughout. Moreover, the mortality at 800 ppm in experiment [3] was at least 75%.
Turning to `CCS(=O)(=O)c1c(-c2nc3cnc4cc(C(F)(F)F)ccc4c3n2C)nc2ccccn12` [C-6], the mortality at 2500 ppm in experiment [2] and in experiment [5] was over 75% in each case.
Regarding `CCS(=O)(=O)c1c(-c2nc3cnc4cc(C(F)(F)F)ccc4c3n2C)nc2ncccn12` [C-18], in experiment [5], the mortality at 800 ppm was over 75%.
In the case of `CCS(=O)(=O)c1c(-c2nc3cnc4c(OC(F)(F)F)cccc4c3n2C)nc2ccccn12` [C-4, 2-(3-ethylsulfonylimidazo[1,2-a]pyridin-2-yl)-1-methyl-6-(trifluoromethoxy)imidazo[4,5-c]quinoline], the mortality at 2500 ppm in experiment [2], in experiment [1], in experiment [4] and in experiment [5] was over 75% in each case. Further, the mortality at 800 ppm in experiment [3] was at least 75%.
For the compound `CCS(=O)(=O)c1c(-c2cn3c(ccc4c(C(F)(F)F)cc(C(F)(F)F)nc43)n2)nc2ccc(C(F)(F)F)cn12` [C-8], the mortality at 800 ppm in experiment [2] and in experiment [5] was over 75% throughout.
With `CCS(=O)(=O)c1c(-c2cn3c(ccc4c(C(F)(F)F)ccnc43)n2)nn2ccccc12` [C-10], the mortality at 800 ppm in experiment [2] and in experiment [1] was over 75% each time.
In the case of `CCS(=O)(=O)c1c(-c2nc3cnc4c(C(F)(F)F)cccc4c3n2C)nn2ccccc12` [C-19], the mortality at 800 ppm in experiment [2] is over 75%; in experiment [3], at least 75%; in experiment [1], over 75%; in experiment [5] it was over 75%.
As to `CCS(=O)(=O)c1c(-c2nc3cnc4c(C(F)(F)F)cccc4c3n2C)nc2ncccn12` [C-16], the mortality at 800 ppm in experiment [1] is over 75%.
On to `CCS(=O)(=O)c1c(-c2cn3c(ccc4c(C(F)(F)F)ccnc43)n2)nc2ccc(C(F)(F)F)cn12` [C-9], for which the mortality at 800 ppm in experiment [2] was over 75%; in experiment [3] it was at least 75%; in experiment [1] it was over 75%; in experiment [5] it was over 75%.
With `CCS(=O)(=O)c1c(-c2nc3cnc4cc(OC(F)(F)F)ccc4c3n2C)nc2ncccn12` [C-15], the mortality at 800 ppm in experiment [1] is over 75%.
For `CCS(=O)(=O)c1c(-c2nc3cnc4cc(OC(F)(F)F)ccc4c3n2C)nn2ccc(C(C)(C)C#N)cc12` [C-23], the mortality at 800 ppm in experiment [2] and in experiment [5] was over 75% each time.
Consider `CCS(=O)(=O)c1c(-c2nc3cnc4cc(OC(F)(F)F)ccc4c3n2C)nc2n1CCCC2` [C-14], for which the mortality at 800 ppm in experiment [1] and in experiment [5] was over 75% each time.
Take `CCS(=O)(=O)c1c(-c2nc3cnc4cc(C(F)(F)F)ccc4c3n2C)nn2ccccc12` [C-20]: the mortality at 800 ppm in experiment [2] and in experiment [5] was over 75% each time.
On to `CCS(=O)(=O)c1c(-c2nc3cnc4c(OC(F)(F)F)cccc4c3n2C)nn2ccc(C(C)(C)C#N)cc12` [C-22], for which the mortality at 800 ppm in experiment [2], in experiment [1] and in experiment [5] was over 75% in each case.
`CCS(=O)(=O)c1c(-c2nc3cnc4cc(C(F)(F)F)ccc4c3n2C)nc2ccc(Br)cn12` [C-27]: the mortality at 800 ppm in experiment [2] was over 75%; in experiment [3] it was at least 75%; in experiment [5] it was over 75%.
Consider `CCS(=O)(=O)c1c(-c2nc3cnc4cc(OC(F)(F)F)ccc4c3n2C)nn2ccccc12` [C-29], for which the mortality at 800 ppm in experiment [2] was over 75%; in experiment [3], at least 75%; in experiment [1], over 75%; in experiment [5], over 75%.
In the case of `CCS(=O)(=O)c1c(-c2nc3cnc4c(C(F)(F)F)cccc4c3n2C)nc2ccc(Br)cn12` [C-28], the mortality at 800 ppm in experiment [2] is over 75%; in experiment [3], at least 75%; in experiment [1], over 75%; in experiment [5], over 75%.
With `CCS(=O)(=O)c1c(-c2nc3cc(C(F)(F)F)c4ncccc4c3n2C)nc2ccccn12` [C-11, 2-(3-ethylsulfonylimidazo[1,2-a]pyridin-2-yl)-1-methyl-5-(trifluoromethyl)imidazo[4,5-f]quinoline], the mortality at 800 ppm in experiment [2], in experiment [1] and in experiment [5] was over 75% in each case.
As to `CCS(=O)(=O)c1c(-c2nc3cnc4c(C(F)(F)F)cccc4c3n2C)nc2ccccn12` [C-3], the mortality at 2500 ppm in experiment [2], in experiment [1], in experiment [4] and in experiment [5] was over 75% in each case. Besides, the mortality at 800 ppm in experiment [3] was at least 75%.
Regarding `CCS(=O)(=O)c1c(-c2nc3cnc4c(OC(F)(F)F)cccc4c3n2C)nc2ccc(C(F)(F)F)cn12` [C-1], the mortality at 2500 ppm in experiment [2], in experiment [1], in experiment [4] and in experiment [5] was over 75% in each case. Moreover, in experiment [3], the mortality at 800 ppm is at least 75%.
Consider `CCS(=O)(=O)c1c(-c2nc3cnc4c(C(F)(F)F)cccc4c3n2C)nc2n1CCCC2` [C-12], for which the mortality at 800 ppm in experiment [2] was over 75%; in experiment [3] it was at least 75%; in experiment [1], over 75%; in experiment [5], over 75%.
For `CCS(=O)(=O)c1c(-c2cn3c(ccc4c(C(F)(F)F)ccnc43)n2)nc2ccccn12` [C-7, 8-(3-ethylsulfonylimidazo[1,2-a]pyridin-2-yl)-4-(trifluoromethyl)imidazo[1,2-a][1,8]naphthyridine], the mortality at 2500 ppm in experiment [2], in experiment [1] and in experiment [5] was over 75% throughout. Besides, the mortality at 800 ppm in experiment [3] is at least 75%.
